ChEMBL document CHEMBL4270538, “Targeting prohibitin with small molecules to promote melanogenesis and apoptosis in melanoma cells” (Eur J Med Chem, 2018)
pIC50: −log10 of the molar value. Blank lines part the entries; values can stand above or below the compound they belong to. Calls of active or inactive are those of the source. The calls are words filed in the database; no cut-off is given here.

Tests used:
[1] = molecular target: Prohibitin-2 (Homo sapiens) (UniProt Q99623); test: Binding affinity to PHB2 in human HBL cells assessed as upregulation of tyrosinase protein expression at 0.1 to 10 uM after 24 to 48 hrs by Western blot analysis; assay type: cell-based
[2] = molecular target: T1, Prohibitin 1 (Homo sapiens) (UniProt P35232); test: Downregulation of PHB1 in human HBL cells at 0.1 to 10 uM after 24 to 48 hrs by Western blot analysis; assay type: cell-based
T1 sequence (whole entry): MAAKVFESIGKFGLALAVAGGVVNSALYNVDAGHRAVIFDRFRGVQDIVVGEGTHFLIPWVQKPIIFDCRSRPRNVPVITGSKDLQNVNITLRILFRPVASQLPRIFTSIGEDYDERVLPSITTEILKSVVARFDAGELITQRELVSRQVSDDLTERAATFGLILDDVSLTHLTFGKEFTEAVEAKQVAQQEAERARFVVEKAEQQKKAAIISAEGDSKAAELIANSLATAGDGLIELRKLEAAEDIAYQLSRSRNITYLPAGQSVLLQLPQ

[3] = molecular target: Prohibitin-2 (Homo sapiens) (UniProt Q99623); test: Induction of PHB2-mediated melanogenesis in human HBL cells assessed as pigmentation at 10 uM after 10 days relative to control; assay type: cell-based
[4] = molecular target: Prohibitin-2 (Homo sapiens) (UniProt Q99623); test: Binding affinity to PHB2 in human HBL cells assessed as upregulation of MITF protein expression at 0.1 to 10 uM after 24 to 48 hrs by Western blot analysis; assay type: cell-based
[5] = molecular target: Prohibitin-2 (Homo sapiens) (UniProt Q99623); test: Induction of PHB2-mediated melanogenesis in human MM043 cells assessed as pigmentation at 1 to 10 uM after 10 days relative to control; assay type: cell-based
[6] = molecular target: Prohibitin-2 (Homo sapiens) (UniProt Q99623); test: Binding affinity to PHB2 in human HL60 cells assessed as upregulation of ERK phosphorylation at 0.1 uM after 24 hrs by Western blot analysis; assay type: cell-based
[7] = molecular target: Prohibitin-2 (Homo sapiens) (UniProt Q99623); test: Binding affinity to PHB2 in human HL60 cells assessed as LC3-2 accumulation at 0.1 to 10 uM after 24 hrs by Western blot analysis; assay type: cell-based
[8] = molecular target: T1, Prohibitin 1 (Homo sapiens); test: Downregulation of PHB1 in human HL60 cells at 0.1 to 10 uM after 24 hrs by Western blot analysis; assay type: cell-based
KB = test: Inhibition of cell proliferation in human KB cells after 72 hrs by MTS assay; assay type: functional, cell-based
[9] = molecular target: Prohibitin-2 (Homo sapiens) (UniProt Q99623); test: Induction of PHB2-mediated melanogenesis in human MM162 cells assessed as pigmentation at 1 to 10 uM after 10 days relative to control; assay type: cell-based
[10] = molecular target: Prohibitin-2 (Homo sapiens) (UniProt Q99623); test: Binding affinity to PHB2 in human HBL cells assessed as upregulation of ERK phosphorylation at 0.1 to 10 uM after 24 hrs by Western blot analysis; assay type: cell-based
[11] = molecular target: RAC-alpha serine/threonine-protein kinase (Homo sapiens) (UniProt P31749); test: Inhibition of Akt phosphorylation in human HBL cells at 0.1 to 10 uM after 24 to 48 hrs by Western blot analysis; assay type: cell-based
HL-60 = test: Inhibition of cell proliferation in human HL60 cells after 72 hrs by MTS assay; assay type: functional, cell-based; conditions: HL-60, 72 h
[12] = molecular target: Prohibitin-2 (Homo sapiens) (UniProt Q99623); test: Binding affinity to PHB2 in human HBL cells assessed as feedback mechanism based inhibition of ERK phosphorylation at 0.1 to 10 uM after 48 hrs by Western blot analysis; assay type: cell-based
[13] = molecular target: Prohibitin-2 (Homo sapiens) (UniProt Q99623); test: Downregulation of PHB2 in human HBL cells at 0.1 to 10 uM after 24 to 48 hrs by Western blot analysis; assay type: cell-based
[14] = molecular target: Prohibitin-2 (Homo sapiens) (UniProt Q99623); test: Downregulation of PHB2 in human HL60 cells at 0.1 to 10 uM after 24 hrs by Western blot analysis; assay type: cell-based
[15] = molecular target: Prohibitin-2 (Homo sapiens) (UniProt Q99623); test: Induction of PHB2-mediated melanogenesis in human HBL cells assessed as pigmentation at 1 uM after 10 days relative to control; assay type: cell-based
[16] = molecular target: Prohibitin-2 (Homo sapiens) (UniProt Q99623); test: Binding affinity to PHB2 in human HBL cells assessed as LC3-2 accumulation after 24 to 48 hrs by Western blot analysis; assay type: cell-based
[17] = molecular target: RAC-alpha serine/threonine-protein kinase (Homo sapiens) (UniProt P31749); test: Inhibition of Akt phosphorylation in human HL60 cells after 24 to 48 hrs by Western blot analysis; assay type: cell-based
[18] = molecular target: Prohibitin-2 (Homo sapiens) (UniProt Q99623); test: Binding affinity to PHB2 in human HBL cells assessed as upregulation of MITF protein expression at 10 uM after 24 in presence of autophagy inhibitor PIK-3 by Western blot analysis; assay type: cell-based
[19] = molecular target: Prohibitin-2 (Homo sapiens) (UniProt Q99623); test: Downregulation of PHB2 in human MM162 cells at 0.1 to 10 uM after 24 hrs by Western blot analysis; assay type: cell-based
Homo sapiens [20] = species: Homo sapiens; test: Induction of apoptosis in human MM162 cells at 1 to 10 uM after 48 hrs by Annexin V-PE/7-AAD staining based flow cytometry; assay type: functional, cell-based
[21] = molecular target: Prohibitin-2 (Homo sapiens) (UniProt Q99623); test: Induction of PHB2-mediated melanogenesis in human HBL cells assessed as pigmentation at 10 uM after 10 days in presence of autophagy inhibitor PIK-3; assay type: cell-based
[22] = molecular target: RAC-alpha serine/threonine-protein kinase (Homo sapiens) (UniProt P31749); test: Inhibition of Akt phosphorylation in human MM162 cells at 0.1 to 10 uM after 24 hrs by Western blot analysis; assay type: cell-based
[23] = molecular target: Prohibitin-2 (Homo sapiens) (UniProt Q99623); test: Binding affinity to PHB2 in human HBL cells assessed as LC3-2 accumulation at 10 uM after 24 in presence of autophagy activator HD1 by Western blot analysis; assay type: cell-based
[24] = molecular target: Prohibitin-2 (Homo sapiens) (UniProt Q99623); test: Downregulation of PHB2 in human MM043 cells at 0.1 to 10 uM after 24 hrs by Western blot analysis; assay type: cell-based
[25] = molecular target: Prohibitin-2 (Homo sapiens) (UniProt Q99623); test: Induction of PHB2-mediated melanogenesis in human HBL cells assessed as pigmentation at 10 uM after 10 days in presence of autophagy activator HD1; assay type: cell-based
[26] = molecular target: Prohibitin-2 (Homo sapiens) (UniProt Q99623); test: Binding affinity to PHB2 in human HBL cells assessed as LC3-2 accumulation at 10 uM after 24 in presence of autophagy inhibitor PIK-3 by Western blot analysis; assay type: cell-based
[27] = molecular target: T1, Prohibitin 1 (Homo sapiens); test: Downregulation of PHB1 in human MM162 cells at 0.1 to 10 uM after 24 hrs by Western blot analysis; assay type: cell-based
[28] = molecular target: RAC-alpha serine/threonine-protein kinase (Homo sapiens) (UniProt P31749); test: Inhibition of Akt phosphorylation in human MM043 cells at 0.1 to 10 uM after 24 hrs by Western blot analysis; assay type: cell-based
HBL = test: Induction of apoptosis in human HBL cells at 1 to 10 uM after 48 hrs by Annexin V-PE/7-AAD staining based flow cytometry; assay type: functional, cell-based
[29] = molecular target: T1, Prohibitin 1 (Homo sapiens); test: Downregulation of PHB1 in human MM043 cells at 0.1 to 10 uM after 24 hrs by Western blot analysis; assay type: cell-based
Homo sapiens [30] = species: Homo sapiens; test: Induction of apoptosis in human MM043 cells at 1 to 10 uM after 48 hrs by Annexin V-PE/7-AAD staining based flow cytometry; assay type: functional, cell-based
[31] = molecular target: Prohibitin-2 (Homo sapiens) (UniProt Q99623); test: Binding affinity to PHB2 in human HBL cells assessed as upregulation of MITF protein expression at 10 uM after 24 in presence of autophagy activator HD1 by Western blot analysis; assay type: cell-based
[32] = molecular target: T1, Prohibitin 1 (Homo sapiens); test: Binding affinity to PHB1 in human HBL cells using affigel conjugated compound after overnight incubation by pull down assay; assay type: cell-based

Sequence of RAC-alpha serine/threonine-protein kinase (Homo sapiens) (P31749 whole entry): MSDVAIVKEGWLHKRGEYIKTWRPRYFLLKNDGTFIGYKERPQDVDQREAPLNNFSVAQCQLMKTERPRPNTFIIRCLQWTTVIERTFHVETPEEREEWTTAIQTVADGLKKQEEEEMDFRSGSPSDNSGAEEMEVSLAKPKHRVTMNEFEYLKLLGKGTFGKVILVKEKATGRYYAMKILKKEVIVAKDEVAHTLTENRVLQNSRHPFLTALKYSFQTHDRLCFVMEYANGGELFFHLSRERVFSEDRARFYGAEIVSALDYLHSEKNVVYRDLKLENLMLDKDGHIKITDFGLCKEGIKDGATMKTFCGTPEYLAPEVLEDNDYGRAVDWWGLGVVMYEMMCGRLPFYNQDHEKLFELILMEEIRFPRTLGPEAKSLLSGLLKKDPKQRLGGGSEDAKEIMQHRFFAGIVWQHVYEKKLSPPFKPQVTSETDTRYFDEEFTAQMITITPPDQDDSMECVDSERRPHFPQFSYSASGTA
Sequence of Prohibitin-2 (Homo sapiens) (Q99623 whole entry): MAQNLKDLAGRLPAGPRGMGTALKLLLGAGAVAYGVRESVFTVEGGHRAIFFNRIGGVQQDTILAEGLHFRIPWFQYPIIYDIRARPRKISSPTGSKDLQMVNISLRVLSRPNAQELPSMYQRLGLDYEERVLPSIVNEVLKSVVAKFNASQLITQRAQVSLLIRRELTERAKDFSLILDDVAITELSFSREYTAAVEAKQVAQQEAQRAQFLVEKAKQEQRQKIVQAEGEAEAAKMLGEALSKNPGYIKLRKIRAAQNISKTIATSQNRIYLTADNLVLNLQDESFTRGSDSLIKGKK

- Activity [1]: Active
- Activity [2]: Active
- fold change (FC) [3]: 2.23
- Activity [4]: Active
- Activity [5]: Active
- Activity [6]: Active
- Activity [7]: Active
- Activity [8]: Active
- pIC50 (KB): 4.20
- Activity [9]: Active
- Activity [10]: Active
- inhibition [11]: Active
- pIC50 (HL-60): 4.02
- inhibition [12]: Active
- Activity [13]: Active
- Activity [14]: Active
- fold change (FC) [15]: 0.89
- Activity [16]: Dose-dependent effect
- inhibition [17]: Dose-dependent effect
Compound: CN(C)CCNc1nc(Oc2c(F)c(F)c(F)c(F)c2F)nc(N2CCCc3ccccc3C2)n1

- Activity [1]: Active
- Activity [18]: inactive
- Activity [2]: Active
- Activity [19]: Active
- fold change (FC) [3]: 2.01
- Activity [21]: inactive
- Activity [4]: Active
- inhibition [22]: Active
- Activity [23]: Active
- Activity [5]: Active
- Activity [24]: Active
- Activity [25]: Active
- Activity [6]: Active
- Activity [7]: Active
- Activity [26]: inactive
- Activity [8]: Active
- pIC50 (KB): 4.34
- Activity [9]: Active
- Activity [10]: Active
- Activity [27]: Active
- inhibition [11]: Active
- inhibition [28]: Active
- pIC50 (HL-60): 4.60
- inhibition [12]: Active
- Activity [13]: Active
- Activity [29]: Active
- Activity [14]: Active
- fold change (FC) [15]: 1.15
- Activity [16]: Dose-dependent effect
- Activity [31]: Active
- inhibition [17]: Dose-dependent effect
Compound: Fc1cccc(CNc2nc(Oc3c(F)c(F)c(F)c(F)c3F)nc(N3CCC(N4CCCCC4)CC3)n2)c1
- Activity (Homo sapiens [20]): Active
- Activity (HBL): Active
- Activity (Homo sapiens [30]): Active

- fold change (FC) [3]: 0.99
- fold change (FC) [15]: 0.98
Compound: CN(C)CCNc1nc(Oc2c(F)c(F)c(F)c(F)c2F)nc(N(C)Cc2ccccc2)n1

- Activity [32]: Active
- fold change (FC) [3]: 1.79
- fold change (FC) [15]: 0.87
Compound: Fc1c(F)c(F)c(Oc2nc(N3CCC(N4CCCCC4)CC3)nc(N3CCCc4ccccc4C3)n2)c(F)c1F

- fold change (FC) [3]: 1
- fold change (FC) [15]: 0.91
Compound: CC(=O)NCCNc1nc(NCc2cccc(F)c2)nc(Oc2c(F)c(F)c(F)c(F)c2F)n1

- fold change (FC) [3]: 0.84
- fold change (FC) [15]: 1.01
Compound: CNc1nc(NC(C)c2cccc(F)c2)nc(Oc2c(F)c(F)c(F)c(F)c2F)n1 (centres undefined)

- fold change (FC) [3]: 0.65
- fold change (FC) [15]: 0.78
Compound: CN1CCN(c2nc(NCc3cccc(F)c3)nc(Oc3c(F)c(F)c(F)c(F)c3F)n2)CC1

- fold change (FC) [3]: 0.94
- fold change (FC) [15]: 0.92
Compound: Fc1cccc(CNc2nc(NCc3cccnc3)nc(Oc3c(F)c(F)c(F)c(F)c3F)n2)c1

- fold change (FC) [3]: 0.76
- fold change (FC) [15]: 0.8
Compound: COCCNc1nc(NCc2cccc(F)c2)nc(Oc2c(F)c(F)c(F)c(F)c2F)n1

- fold change (FC) [3]: 1.53
- fold change (FC) [15]: 1.25
Compound: C[C@H](c1ccccc1)N(C)c1nc(NCCN(C)C)nc(Oc2c(F)c(F)c(F)c(F)c2F)n1

- fold change (FC) [3]: 0.95
- fold change (FC) [15]: 1.07
Compound: Fc1cccc(CNc2nc(NCC3CCCO3)nc(Oc3c(F)c(F)c(F)c(F)c3F)n2)c1 (centres undefined)

- fold change (FC) [3]: 1.11
- fold change (FC) [15]: 0.9
Compound: Fc1cccc(CNc2nc(NCCc3ccccc3)nc(Oc3c(F)c(F)c(F)c(F)c3F)n2)c1
